Reference: US9527828B2, “Method for expanding hematopoietic stem cells using heterocyclic compound” (Nissan Chemical Industries, Ltd., priority 2007, dated 2016)

Tested on: CD34^+CD38^− cells
Experiment: Expansion of CD34+CD38− cells from human cord blood-derived CD34+ cells (Example 2)
Format: cell-based
Settings: 1 μg/mL compound, 50 ng/mL SCF, StemSpan SFEM, 7 days, based on number of CD34+CD38− cells in the absence of compound; for fold induction at 1 µg/mL: Homo sapiens, 168 h, read-out: Expansion efficiency
Method: The human cord blood-derived CD34^+ cells collected or purchased in Example 1 were plated on a 24-well plate (TPP) (10000 cells/1/mL/well). As the culture medium, StemSpan SFEM (Stemcell Technologies) containing 50 ng/mL SCF (Peprotech) was used, and Compounds No. 1 to 133 dissolved in dimethyl sulfoxide were added in an amount of 0.1% (v/v) to a final concentration of 1 μg/mL.
After the cells were incubated in liquid culture at 37° C. for 7 days in a CO2 incubator (5% CO2), the number of viable cells was counted by trypan blue assay. The number of CD34^+CD38^− cells was calculated as follows. After the incubation, the cells in the liquid culture was stained with a CD34 antibody (APC, Becton, Dickinson and Company) and a CD38 antibody (PE, Becton, Dickinson and Company), then washed with PBS(−) containing 2% (v/v) FBS and stained with propidium iodide (Sigma-Aldrich Japan) added to a final concentration of 5 μg/mL. The stained cells were analyzed with a flow cytometer JSAN (Bay Bioscience) to determined the proportion of CD34^+CD38^− cells, which was multiplied by the number of viable cells to calculate the number of CD34^+CD38^− cells.
The expansion efficiencies in the presence of 1 μg/mL of compounds based on the number of CD34^+CD38^− cells in the absence of them are shown in Tables 2 and 3 on a scale of A for expansion efficiencies of 10 or greater, B for expansion efficiencies of at least 5 and less than 10, and C for expansion efficiencies of at least 3 and less than 5.

Structure (SMILES) | fold induction at 1 µg/mL | Expansion efficiency
C/C(=N\NC(=O)c1ccc(C(=O)NCCN2CCOCC2)s1)c1csc(-c2ccc(Br)cc2)c1O [compound 34] | 3 to 5 | 
C/C(=N\NC(=O)c1ccc(C(=O)NCc2cscn2)s1)c1csc(-c2ccc(Cl)c(Cl)c2)c1O [compound 35] | 5 to 10 | 
C/C(=N\NC(=O)c1ccc(C(=O)NCc2ncccn2)s1)c1csc(-c2ccc(Cl)c(Cl)c2)c1O [compound 36] | ≥ 10 | 
C/C(=N\NC(=O)c1ccc(C(=O)NCc2cc(C)on2)s1)c1csc(-c2ccc(Cl)c(Cl)c2)c1O [compound 38] | ≥ 10 | 
C/C(=N\NC(=O)c1ccc(C(=O)NCc2cnc(C)cn2)s1)c1csc(-c2ccc(Cl)c(Cl)c2)c1O [compound 39] | 5 to 10 | 
C/C(=N\NC(=O)c1ccc(C(=O)NCc2ccno2)s1)c1csc(-c2ccc(Cl)c(Cl)c2)c1O [compound 40] | 5 to 10 | 
C/C(=N\NC(=O)c1ccc(C(=O)NCc2c(C)nn(C)c2C)s1)c1csc(-c2ccc(Cl)c(Cl)c2)c1O [compound 41] | 5 to 10 | 
COc1c(/C(C)=N/NC(=O)c2ccc(C(=O)NCc3ccncc3)s2)csc1-c1ccc(Cl)c(Cl)c1 [compound 42] | 5 to 10 | 
C/C(=N\NC(=O)c1ccc(C(=O)NCc2ccnnc2)s1)c1csc(-c2ccc(Cl)c(Cl)c2)c1O [compound 43] | ≥ 10 | 
C/C(=N\NC(=O)c1ccc(C(=O)NCc2cccnn2)s1)c1csc(-c2ccc(Cl)c(Cl)c2)c1O [compound 44] | 5 to 10 | 
C/C(=N\NC(=O)c1ccc(C(=O)NCc2ccnn2C)s1)c1csc(-c2ccc(C(F)(F)F)cc2)c1O [compound 45] | 5 to 10 | 
C/C(=N\NC(=O)c1ccc(C(=O)NCc2cc(C)on2)s1)c1csc(-c2ccc(C(F)(F)F)cc2)c1O [compound 46] | 5 to 10 | 
C/C(=N\NC(=O)c1ccc(C(=O)NCc2cc(Cl)no2)s1)c1csc(-c2ccc(Cl)c(Cl)c2)c1O [compound 47] | 5 to 10 | 
C/C(=N\NC(=O)c1ccc(C(=O)NCc2ccno2)s1)c1csc(-c2ccc(C(F)(F)F)cc2)c1O [compound 48] | 5 to 10 | 
C/C(=N\NC(=O)c1ccc(C(=O)NCc2c(C)nn(C)c2C)s1)c1csc(-c2ccc(C(F)(F)F)cc2)c1O [compound 49] | 5 to 10 | 
COc1cc(CNC(=O)c2ccc(C(=O)N/N=C(\C)c3csc(-c4ccc(C(F)(F)F)cc4)c3O)s2)on1 [compound 50] | 5 to 10 | 
C/C(=N\NC(=O)c1ccc(C(=O)NCc2cncn2C)s1)c1csc(-c2ccc(Cl)c(Cl)c2)c1O [compound 51] | 5 to 10 | 
C/C(=N\NC(=O)c1ccc(C(=O)NCc2cncn2C)s1)c1csc(-c2ccc(C(F)(F)F)cc2)c1O [compound 52] | 5 to 10 | 
C/C(=N\NC(=O)c1ccc(C(=O)NCc2cnn(C)n2)s1)c1csc(-c2ccc(Cl)c(Cl)c2)c1O [compound 53] | 5 to 10 | 
C/C(=N\NC(=O)c1ccc(C(=O)NCc2cnn(C)n2)s1)c1csc(-c2ccc(C(F)(F)F)cc2)c1O [compound 54] | 5 to 10 | 

Structure (SMILES) | fold induction at 1 µg/mL | Expansion efficiency
C/C(=N\NC(=O)c1ccc(C(=O)NCc2cn(C)cn2)s1)c1csc(-c2ccc(C(F)(F)F)cc2)c1O [compound 55] | 5 to 10 | 
C/C(=N\NC(=O)c1ccc(C(=O)NCc2cc(C)n(C)n2)s1)c1csc(-c2ccc(C(F)(F)F)cc2)c1O [compound 56] | 5 to 10 | 
C/C(=N\NC(=O)c1ccc(C(=O)NCc2cc[n+]([O-])cc2)s1)c1csc(-c2ccc(C(F)(F)F)cc2)c1O [compound 57] | 5 to 10 | 
C/C(=N\NC(=O)c1ccc(C(=O)NCc2ccnn2C)s1)c1csc(-c2ccc(Cl)cc2)c1O [compound 58] | 5 to 10 | 
C/C(=N\NC(=O)c1ccc(C(=O)NCc2ccc(S(C)(=O)=O)cc2)s1)c1csc(-c2ccc(Cl)c(Cl)c2)c1O [compound 59] | 5 to 10 | 
C/C(=N\NC(=O)c1ccc(C(=O)NCc2ccc(C#N)cc2)s1)c1csc(-c2ccc(Cl)c(Cl)c2)c1O [compound 60] | ≥ 10 | 
C/C(=N\NC(=O)c1ccc(C(=O)NCc2ccc(S(N)(=O)=O)cc2)s1)c1csc(-c2ccc(Cl)c(Cl)c2)c1O [compound 61] | 5 to 10 | 
CCCNC(=O)c1ccc(C(=O)N/N=C(\C)c2csc(-c3ccc(Cl)c(Cl)c3)c2O)s1 [compound 62] | 3 to 5 | 
C/C(=N\NC(=O)c1ccc(C(=O)NC2CCCC2)s1)c1csc(-c2ccc(Cl)c(Cl)c2)c1O [compound 63] | 3 to 5 | 
C/C(=N\NC(=O)c1ccc(C(=O)NCCCN(C)C)s1)c1csc(-c2ccc(Cl)c(Cl)c2)c1O [compound 64] | 3 to 5 | 
C/C(=N\NC(=O)c1ccc(C(=O)NCCO)s1)c1csc(-c2ccc(Cl)c(Cl)c2)c1O [compound 65] | 5 to 10 | 
C/C(=N\NC(=O)c1ccc(C(=O)NCCN(C)C)s1)c1csc(-c2ccc(Cl)c(Cl)c2)c1O [compound 66] | 3 to 5 | 
C/C(=N\NC(=O)c1ccc(C(=O)NCCN2CCCC2)s1)c1csc(-c2ccc(Cl)c(Cl)c2)c1O [compound 67] | 3 to 5 | 
C/C(=N\NC(=O)c1ccc(C(=O)NC2CCC(O)CC2)s1)c1csc(-c2ccc(Cl)c(Cl)c2)c1O (stereo not shown) [compound 68] | 5 to 10 | 
CCCCCNC(=O)c1ccc(C(=O)N/N=C(\C)c2csc(-c3ccc(Cl)c(Cl)c3)c2O)s1 [compound 69] | 3 to 5 | 
C/C(=N\NC(=O)c1ccc(C(=O)NCCO)s1)c1csc(-c2ccc(Cl)cc2)c1O [compound 70] |  | B (B for expansion efficiencies of at least 5 and less than 10)
CCN(CC)C(=O)c1ccc(C(=O)N/N=C(\C)c2csc(-c3ccc(Cl)cc3)c2O)s1 [compound 71] | 5 to 10 | 
C/C(=N\NC(=O)c1ccc(C(=O)NCc2ccccn2)s1)c1csc(-c2ccc(Cl)c(Cl)c2)c1O [compound 72] | 5 to 10 | 
C/C(=N\NC(=O)c1ccc(C(=O)NCCCCO)s1)c1csc(-c2ccc(Cl)c(Cl)c2)c1O [compound 73] | 5 to 10 | 
C/C(=N\NC(=O)c1ccc(C(=O)NCc2ccccn2)s1)c1csc(-c2cccc(Cl)c2)c1O [compound 75] | 3 to 5 | 

Structure (SMILES) | fold induction at 1 µg/mL | Expansion efficiency
CCCN(C)C(=O)c1ccc(C(=O)N/N=C(\C)c2csc(-c3ccc(Cl)cc3)c2O)s1 [compound 76] | 3 to 5 | 
C/C(=N\NC(=O)c1ccc(C(=O)NC(C)C)s1)c1csc(-c2ccc(Cl)cc2)c1O [compound 77] | 5 to 10 | 
C/C(=N\NC(=O)c1ccc(C(=O)NC(C)C)s1)c1csc(-c2cccc(Cl)c2)c1O [compound 78] | 5 to 10 | 
C/C(=N\NC(=O)c1ccc(C(=O)N(C)Cc2ccccc2)s1)c1csc(-c2cccc(Cl)c2)c1O [compound 79] | 3 to 5 | 
C/C(=N\NC(=O)c1ccc(C(=O)N(C)Cc2ccccn2)s1)c1csc(-c2ccc(Cl)c(Cl)c2)c1O [compound 80] | 3 to 5 | 
CCN(C)C(=O)c1ccc(C(=O)N/N=C(\C)c2csc(-c3ccc(Cl)c(Cl)c3)c2O)s1 [compound 81] | 3 to 5 | 
C/C(=N\NC(=O)c1ccc(C(=O)NCc2cn(C)cn2)s1)c1csc(-c2ccc(OC(F)(F)F)cc2)c1O [compound 82] | 3 to 5 | 
C/C(=N\NC(=O)c1ccc(C(=O)NCc2ccc(C(=O)O)cc2)s1)c1csc(-c2ccc(Cl)c(Cl)c2)c1O [compound 83] | 3 to 5 | 
C/C(=N\NC(=O)c1ccc(C(=O)NCc2ccncn2)s1)c1csc(-c2ccc(Cl)c(Cl)c2)c1O [compound 84] | 5 to 10 | 
CCCN(CC)C(=O)c1ccc(C(=O)N/N=C(\C)c2csc(-c3ccc(Cl)c(Cl)c3)c2O)s1 [compound 85] | 3 to 5 | 
C/C(=N\NC(=O)c1ccc(C(=O)NCc2ccc(C(N)=O)cc2)s1)c1csc(-c2ccc(C(C)(C)C)cc2)c1O [compound 86] | ≥ 10 | 
C/C(=N\NC(=O)c1ccc(C(=O)NCc2ccc(C(N)=O)cc2)s1)c1csc(-c2ccc(Br)cc2)c1O [compound 87] | ≥ 10 | 
C/C(=N\NC(=O)c1ccc(C(=O)NCc2ccc(C(N)=O)cc2)s1)c1csc(-c2ccc(C(F)(F)F)cc2)c1O [compound 88] | ≥ 10 | 
C/C(=N\NC(=O)c1ccc(C(=O)NCc2ccc(C(N)=O)cc2)s1)c1csc(-c2ccc(Cl)cc2)c1O [compound 89] | ≥ 10 | 
C/C(=N\NC(=O)c1ccc(C(=O)NCc2ccc(C(N)=O)cc2)s1)c1csc(-c2ccc(OC(F)(F)F)cc2)c1O [compound 90] | ≥ 10 | 
COc1ccc(-c2scc(/C(C)=N/NC(=O)c3ccc(C(=O)NCc4ccc(C(N)=O)cc4)s3)c2O)cc1 [compound 91] | ≥ 10 | 
C/C(=N\NC(=O)c1ccc(C(=O)NCc2cccc(C(N)=O)c2)s1)c1csc(-c2ccc(Cl)c(Cl)c2)c1O [compound 92] | ≥ 10 | 
C/C(=N\NC(=O)c1ccc(C(=O)NCc2cccc(C(N)=O)c2)s1)c1csc(-c2ccc(C(C)(C)C)cc2)c1O [compound 93] | ≥ 10 | 
